Laboratory results reported in patent US10336792B2, “Antimicrobial peptide dendrimers” (priority 2014, dated 2019).
Converted amounts (≈) assume the structure as drawn. Positions of bridges follow the written chain, without caps; N, C: chain ends. Residues, ends and D or L forms follow the SMILES beside them. Groups on a side chain read outwards from the residue. Chains are numbered I, II in the order given. *: point of attachment. Palmitoyl = CCCCCCCCCCCCCCCC(=O)*

Legend:
Assay type in all cases: cell-based
[1] = test system: Escherichia coli (strain DH5α); conditions: DH5α
Description: (§1) Antimicrobial activity was assayed against Bacillus subtilis (strain BR151), Escherichia coli (strain DH5α) and Pseudomonas aeruginosa (strain PA01). Microdilution broth method was used to determine the minimal inhibitory concentration (MIC). A colony of bacteria was grown in LB-medium overnight at 37° C. The concentration was quantified by measuring absorbance at 600 nm and diluted to OD600=0.1 (1×10^8 CFU/mL). The samples were prepared as stock solutions of 1 mg mL^−1 in H2O and diluted serially by ⅔ in nutrient LB in a 96-well microtiterplate (Cornstar, polypropylene, untreated). The sample solutions (50 μL) were mixed with the diluted bacterial suspension with an OD600 nm of 0.001 (50 μL). […] The plates were incubated at 37° C. until satisfactory growth (18-24 h). For each test, two columns of the plate were kept for sterility control (SC, broth only) and growth control (GC, broth with bacterial inoculums, no antibiotics). 10 μL of a solution of MTT (0.1% in H2O) was added to each well. The minimal inhibitory concentration (MIC) was defined as the lowest concentration of the antimicrobial substance (peptide dendrimer) that inhibited visible growth of the tested bacteria (yellow) with the unaided eye. For microbiological study the linear peptide LysTyrLysLysAlaLeuLysLysLeuAlaLysLeuLeu (SEQ ID No. 1) was used as reference.
(§2) The AMPD library was tested for their antimicrobial activity against B. subtilis BR151, a Gram-positive bacterium and E. coli DH5α, another Gram-negative bacterium, to cover a broader spectrum of different bacteria. […] Therefore no explicit SAR can be established, but clearly the hydrophobic amino acids Ala and Tyr seem to have a significant influence in reducing activity.

[2] = test system: Pseudomonas aeruginosa (strain PA01); assay: microbe, parasite or virus in culture; conditions: strain
Description: as §1
All peptides were tested for their activity against P. aeruginosa PAO1 in a broth dilution assay (Wiegand, I. et al., 2008, Nat. Protoc., 3, 163-75; Clinical and Laboratory Standards Institute document M7-A7 7th Edition) to determine the MIC (minimal inhibitory concentration) values. The stock solutions of the peptide dendrimers were diluted serially by ⅔ in nutrient LB in 96-well microtiter plates. Bacteria were grown in nutrient LB overnight at 37° C. After dilution the bacteria were added to the peptides and incubated overnight (18-24 h) at 37° C. […] The position of the amino acids between the branching units seems to be optimal if the hydrophobic amino acid is the first counting from C-terminus and the charged one is on the second position. Introducing Ala as additional hydrophobic amino acid reduces activity (MSt-120). […] Also assembling charged or hydrophobic sections between the branching units leads to loss of activity whereas altering L-amino acids to D-amino acids maintains activity leading to the hypothesis that the mechanism of action should not be receptor mediated.

[3] = test system: Bacillus subtilis (strain BR151); conditions: strain BR151
Description: as §1, §2

CCCCCCCCCCCCCCCC(=O)NCCCC[C@H](NC(=O)[C@H](CC(C)C)NC(=O)[C@H](CCCCN)NC(=O)[C@H](CCCCNC(=O)[C@H](CC(C)C)NC(=O)[C@H](CCCCN)NC(=O)[C@H](CCCCNC(=O)[C@H](CC(C)C)NC(=O)[C@@H](N)CCCCN)NC(=O)[C@H](CC(C)C)NC(=O)[C@@H](N)CCCCN)NC(=O)[C@H](CC(C)C)NC(=O)[C@H](CCCCN)NC(=O)[C@H](CCCCNC(=O)[C@H](CC(C)C)NC(=O)[C@@H](N)CCCCN)NC(=O)[C@H](CC(C)C)NC(=O)[C@@H](N)CCCCN)C(N)=O [MSt-302, (KL)4(KKL)2(KKLKC16)] (I: H-KLK([Leu-Lys])KLKKLK(Palmitoyl)-NH2 / II: H-KLK([Leu-Lys])KL; amide I:6-II:C)
MIC E. coli DH5α [1]: 12 µg/mL (≈ 4.88 µM)

CCCCCCCCCCCCCCCC(=O)NCCCC[C@H](NC(=O)[C@H](CC(C)C)NC(=O)[C@H](CCCCN)NC(=O)[C@H](CCCCNC(=O)[C@H](CC(C)C)NC(=O)[C@H](CCCCN)NC(=O)[C@H](CCCCNC(=O)[C@H](CC(C)C)NC(=O)[C@H](CCCCN)NC(=O)[C@H](CCCCNC(=O)[C@H](CC(C)C)NC(=O)[C@@H](N)CCCCN)NC(=O)[C@H](CC(C)C)NC(=O)[C@@H](N)CCCCN)NC(=O)[C@H](CC(C)C)NC(=O)[C@H](CCCCN)NC(=O)[C@H](CCCCNC(=O)[C@H](CC(C)C)NC(=O)[C@@H](N)CCCCN)NC(=O)[C@H](CC(C)C)NC(=O)[C@@H](N)CCCCN)NC(=O)[C@H](CC(C)C)NC(=O)[C@H](CCCCN)NC(=O)[C@H](CCCCNC(=O)[C@H](CC(C)C)NC(=O)[C@H](CCCCN)NC(=O)[C@H](CCCCNC(=O)[C@H](CC(C)C)NC(=O)[C@@H](N)CCCCN)NC(=O)[C@H](CC(C)C)NC(=O)[C@@H](N)CCCCN)NC(=O)[C@H](CC(C)C)NC(=O)[C@H](CCCCN)NC(=O)[C@H](CCCCNC(=O)[C@H](CC(C)C)NC(=O)[C@@H](N)CCCCN)NC(=O)[C@H](CC(C)C)NC(=O)[C@@H](N)CCCCN)C(N)=O [MSt-301, (KL)8(KKL)4(KKL)2(KKLKC16)] (I: H-KLK([Leu-Lys])KLKKLKKLK(Palmitoyl)-NH2 / II: H-KLK([Leu-Lys])KLKKL / III: H-KLK([Leu-Lys])KL / IV: H-KLK([Leu-Lys])KL; amide I:6-IV:C, I:9-II:C, II:6-III:C)
MIC E. coli DH5α [1]: 8 µg/mL (≈ 1.63 µM)
MIC P. aeruginosa PAO1 [2]: 11 µg/mL (≈ 2.24 µM)

CC(C)C[C@H](NC(=O)[C@H](CCCCNC(=O)[C@H](CCCCN)NC(=O)[C@H](CC(C)C)NC(=O)[C@H](CCCCNC(=O)[C@H](CCCCN)NC(=O)[C@H](CC(C)C)NC(=O)[C@H](CCCCNC(=O)[C@H](CCCCN)NC(=O)[C@@H](N)CC(C)C)NC(=O)[C@H](CCCCN)NC(=O)[C@@H](N)CC(C)C)NC(=O)[C@H](CCCCN)NC(=O)[C@H](CC(C)C)NC(=O)[C@H](CCCCNC(=O)[C@H](CCCCN)NC(=O)[C@@H](N)CC(C)C)NC(=O)[C@H](CCCCN)NC(=O)[C@@H](N)CC(C)C)NC(=O)[C@H](CCCCN)NC(=O)[C@H](CC(C)C)NC(=O)[C@H](CCCCNC(=O)[C@H](CCCCN)NC(=O)[C@H](CC(C)C)NC(=O)[C@H](CCCCNC(=O)[C@H](CCCCN)NC(=O)[C@@H](N)CC(C)C)NC(=O)[C@H](CCCCN)NC(=O)[C@@H](N)CC(C)C)NC(=O)[C@H](CCCCN)NC(=O)[C@H](CC(C)C)NC(=O)[C@H](CCCCNC(=O)[C@H](CCCCN)NC(=O)[C@@H](N)CC(C)C)NC(=O)[C@H](CCCCN)NC(=O)[C@@H](N)CC(C)C)C(=O)N[C@@H](CCCCN)C(N)=O [MSt-199, (LK)8(KLK)4(KLK)2(KLK)] (I: H-LKK([Lys-Leu])LKKLKKLK-NH2 / II: H-LKK([Lys-Leu])LKKLK / III: H-LKK([Lys-Leu])LK / IV: H-LKK([Lys-Leu])LK; amide I:6-IV:C, I:9-II:C, II:6-III:C)
MIC B. subtilis BR151 [3]: 3 µg/mL (≈ 0.662 µM)
MIC P. aeruginosa PAO1 [2]: 9 µg/mL (≈ 1.98 µM)

CC(C)C[C@H](NC(=O)[C@H](CC(C)C)NC(=O)[C@H](CCCCNC(=O)[C@H](CCCCN)NC(=O)[C@H](CCCCN)NC(=O)[C@H](CCCCNC(=O)[C@H](CC(C)C)NC(=O)[C@H](CC(C)C)NC(=O)[C@H](CCCCNC(=O)[C@H](CCCCN)NC(=O)[C@@H](N)CCCCN)NC(=O)[C@H](CCCCN)NC(=O)[C@@H](N)CCCCN)NC(=O)[C@H](CC(C)C)NC(=O)[C@H](CC(C)C)NC(=O)[C@H](CCCCNC(=O)[C@H](CCCCN)NC(=O)[C@@H](N)CCCCN)NC(=O)[C@H](CCCCN)NC(=O)[C@@H](N)CCCCN)NC(=O)[C@H](CCCCN)NC(=O)[C@H](CCCCN)NC(=O)[C@H](CCCCNC(=O)[C@H](CC(C)C)NC(=O)[C@H](CC(C)C)NC(=O)[C@H](CCCCNC(=O)[C@H](CCCCN)NC(=O)[C@@H](N)CCCCN)NC(=O)[C@H](CCCCN)NC(=O)[C@@H](N)CCCCN)NC(=O)[C@H](CC(C)C)NC(=O)[C@H](CC(C)C)NC(=O)[C@H](CCCCNC(=O)[C@H](CCCCN)NC(=O)[C@@H](N)CCCCN)NC(=O)[C@H](CCCCN)NC(=O)[C@@H](N)CCCCN)C(N)=O [MSt-179, (KK)8(KLL)4(KKK)2(KLL)] (I: H-KKK([Lys-Lys])LLKKKKLL-NH2 / II: H-KKK([Lys-Lys])LLKKK / III: H-KKK([Lys-Lys])LL / IV: H-KKK([Lys-Lys])LL; amide I:6-IV:C, I:9-II:C, II:6-III:C; N-terminus assumed)
MIC E. coli DH5α [1]: >66 µg/mL

CC(C)C[C@H](NC(=O)[C@H](CCCCN)NC(=O)[C@H](CCCCN)NC(=O)[C@H](CCCCNC(=O)[C@H](CC(C)C)NC(=O)[C@H](CCCCN)NC(=O)[C@H](CC(C)C)NC(=O)[C@H](CCCCNC(=O)[C@H](CC(C)C)NC(=O)[C@H](CCCCN)NC(=O)[C@H](CCCCNC(=O)[C@H](CC(C)C)NC(=O)[C@@H](N)CCCCN)NC(=O)[C@H](CC(C)C)NC(=O)[C@@H](N)CCCCN)NC(=O)[C@H](CC(C)C)NC(=O)[C@H](CCCCN)NC(=O)[C@H](CCCCNC(=O)[C@H](CC(C)C)NC(=O)[C@@H](N)CCCCN)NC(=O)[C@H](CC(C)C)NC(=O)[C@@H](N)CCCCN)NC(=O)[C@H](CC(C)C)NC(=O)[C@H](CCCCN)NC(=O)[C@H](CC(C)C)NC(=O)[C@H](CCCCNC(=O)[C@H](CC(C)C)NC(=O)[C@H](CCCCN)NC(=O)[C@H](CCCCNC(=O)[C@H](CC(C)C)NC(=O)[C@@H](N)CCCCN)NC(=O)[C@H](CC(C)C)NC(=O)[C@@H](N)CCCCN)NC(=O)[C@H](CC(C)C)NC(=O)[C@H](CCCCN)NC(=O)[C@H](CCCCNC(=O)[C@H](CC(C)C)NC(=O)[C@@H](N)CCCCN)NC(=O)[C@H](CC(C)C)NC(=O)[C@@H](N)CCCCN)C(N)=O [YGO-008, (KL)8(KKL)4(KLKL)2(KKKL)] (I: H-KLK([Leu-Lys])KLKLKLKKKL-NH2 / II: H-KLK([Leu-Lys])KLKLKL / III: H-KLK([Leu-Lys])KL / IV: H-KLK([Leu-Lys])KL; amide I:6-IV:C, I:10-II:C, II:6-III:C)
MIC P. aeruginosa PAO1 [2]: 2 µg/mL (≈ 0.409 µM)

CC(C)C[C@H](NC(=O)[C@H](CCCNC(=N)N)NC(=O)[C@H](CCCCNC(=O)[C@H](CC(C)C)NC(=O)[C@H](CCCNC(=N)N)NC(=O)[C@H](CCCCNC(=O)[C@H](CC(C)C)NC(=O)[C@H](CCCNC(=N)N)NC(=O)CSC[C@H](NC(=O)[C@H](CC(C)C)NC(=O)[C@H](CCCNC(=N)N)NC(=O)[C@H](CCCCNC(=O)[C@H](CC(C)C)NC(=O)[C@@H](N)CCCNC(=N)N)NC(=O)[C@H](CC(C)C)NC(=O)[C@@H](N)CCCNC(=N)N)C(N)=O)NC(=O)[C@H](CC(C)C)NC(=O)[C@H](CCCNC(=N)N)NC(=O)CSC[C@H](NC(=O)[C@H](CC(C)C)NC(=O)[C@H](CCCNC(=N)N)NC(=O)[C@H](CCCCNC(=O)[C@H](CC(C)C)NC(=O)[C@@H](N)CCCNC(=N)N)NC(=O)[C@H](CC(C)C)NC(=O)[C@@H](N)CCCNC(=N)N)C(N)=O)NC(=O)[C@H](CC(C)C)NC(=O)[C@H](CCCNC(=N)N)NC(=O)[C@H](CCCCNC(=O)[C@H](CC(C)C)NC(=O)[C@H](CCCNC(=N)N)NC(=O)CSC[C@H](NC(=O)[C@H](CC(C)C)NC(=O)[C@H](CCCNC(=N)N)NC(=O)[C@H](CCCCNC(=O)[C@H](CC(C)C)NC(=O)[C@@H](N)CCCNC(=N)N)NC(=O)[C@H](CC(C)C)NC(=O)[C@@H](N)CCCNC(=N)N)C(N)=O)NC(=O)[C@H](CC(C)C)NC(=O)[C@H](CCCNC(=N)N)NC(=O)CSC[C@H](NC(=O)[C@H](CC(C)C)NC(=O)[C@H](CCCNC(=N)N)NC(=O)[C@H](CCCCNC(=O)[C@H](CC(C)C)NC(=O)[C@@H](N)CCCNC(=N)N)NC(=O)[C@H](CC(C)C)NC(=O)[C@@H](N)CCCNC(=N)N)C(N)=O)C(N)=O [CCS-27, (RL)8(KRLCxRL)4(KRL)2KRL]
MIC P. aeruginosa PAO1 [2]: 12 µg/mL (≈ 1.8 µM)
